Data set [1] concerns HEK293. Nature of the data set: Cytotoxicity against human HEK293 cells assessed as cell viability at 20 uM measured after 24 hrs by MTT assay. Type of data set: toxicity, cell-based. Conditions: hek293, 24 h.
Data set [2] deals with T1, NAD-dependent protein deacetylase sirtuin-1 (Homo sapiens) (UniProt Q96EB6).
T1 sequence (whole entry): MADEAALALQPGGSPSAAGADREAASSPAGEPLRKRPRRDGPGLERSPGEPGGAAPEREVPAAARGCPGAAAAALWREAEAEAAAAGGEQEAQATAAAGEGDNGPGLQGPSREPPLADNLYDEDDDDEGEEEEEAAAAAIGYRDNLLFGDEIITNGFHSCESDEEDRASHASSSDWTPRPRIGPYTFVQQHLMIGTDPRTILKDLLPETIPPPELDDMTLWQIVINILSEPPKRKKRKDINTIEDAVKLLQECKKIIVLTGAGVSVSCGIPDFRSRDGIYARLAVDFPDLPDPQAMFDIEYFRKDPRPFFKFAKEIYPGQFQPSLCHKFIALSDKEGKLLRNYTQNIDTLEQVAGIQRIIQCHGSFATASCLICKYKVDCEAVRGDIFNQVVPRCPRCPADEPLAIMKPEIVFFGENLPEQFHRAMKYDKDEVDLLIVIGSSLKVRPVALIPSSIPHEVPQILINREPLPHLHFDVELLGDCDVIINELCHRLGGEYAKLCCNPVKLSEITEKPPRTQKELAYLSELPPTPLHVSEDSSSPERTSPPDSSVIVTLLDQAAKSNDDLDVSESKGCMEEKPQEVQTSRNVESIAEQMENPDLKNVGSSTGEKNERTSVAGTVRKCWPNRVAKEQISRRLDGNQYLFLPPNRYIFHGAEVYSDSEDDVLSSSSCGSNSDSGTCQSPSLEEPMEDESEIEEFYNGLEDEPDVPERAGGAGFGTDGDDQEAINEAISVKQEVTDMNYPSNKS
The experiment in a line: Activation of SIRT1 (unknown origin) expressed in human HEK293 cells assessed as decrease in p53 transcriptional activity at 20 uM measured after 24 hrs by luciferase reporter gene assay. The format is cell-based. Conditions: filed as activator. In general terms: In a reporter assay the amount or activity of a reporter protein is the signal.

The target in data set [3] is T1, NAD-dependent protein deacetylase sirtuin-1 (Homo sapiens). The experiment in a line: Activation of SIRT1 (unknown origin) expressed in human HEK293 cells assessed as decrease in luciferase activity at 5 uM measured after 24 hrs by luciferase reporter gene assay. Type of data set: cell-based. Conditions: filed as activator.
For data set [4], the system named is C2C12. The experiment in a line: Effect on AMPK in mouse C2C12 myotubes assessed as increase in AMPK-alpha phosphorylation at Thr172 at 5 to 10 uM measured after 1 hrs by western blot analysis. Type of data set: functional, cell-based. Conditions: dose 5-10 µM. For orientation: Immunoblotting shows a protein as a band on a membrane.
For data set [5], the target named is T1, NAD-dependent protein deacetylase sirtuin-1 (Homo sapiens). Nature of the data set: Activation of SIRT1 (unknown origin) expressed in human HEK293 cells assessed as increase in deacetylase activity from 1.25 to 20 uM measured after 24 hrs by luciferase reporter gene assay. Type of data set: cell-based. Conditions: filed as activator, dose 1.25-20 µM.
Data set [6] shares this target. The experiment in a line: Activation of SIRT1 (unknown origin) expressed in human HEK293 cells assessed as increase intracellular NAD+ level at 20 uM in presence of NAD+ as substrate incubated for 12 hrs by NAD+/NADH assay based fluorescence microplate reader. Type of data set: cell-based. The following applies: filed as activator.
Data set [7] has the same target. The experiment in a line: Activation of SIRT1 (unknown origin) expressed in human HEK293 cells assessed as increase intracellular NAD+ level at 10 uM in presence of NAD+ as substrate incubated for 12 hrs by NAD+/NADH assay based fluorescence microplate reader. Type of data set: cell-based. The following applies: filed as activator.
Data set [8] relates to C2C12. The experiment in a line: Cytotoxicity against mouse C2C12 myotubes assessed as cell viability at 10 to 40 uM measured after 24 hrs by MTT assay. The format is toxicity, cell-based. The following applies: c2c12, 24 h, dose 10-40 µM. Background: Tetrazolium dyes change colour on reduction, which living cells bring about.
For data set [9], the target named is T1, NAD-dependent protein deacetylase sirtuin-1 (Homo sapiens). Nature of the data set: Activation of SIRT1 (unknown origin) expressed in human HEK293 cells assessed as increase in NAD+/NADH ratio at 10 to 40 uM in presence of NAD+ as substrate incubated for 12 hrs by NAD+/NADH assay based fluorescence microplate reader. Type of data set: cell-based. Conditions: filed as activator, dose 10-40 µM.

Data set [10] has the same target. Nature of the data set: Activation of SIRT1 (unknown origin) expressed in human HEK293 cells assessed as decrease in luciferase activity at 20 uM measured after 24 hrs by luciferase reporter gene assay. The format is cell-based. Conditions: filed as activator.
Data set [11] concerns C2C12. The experiment in a line: Effect on AMPK in mouse C2C12 myotubes assessed as increase in AMPK-alpha phosphorylation at Thr172 at 1 mM measured after 1 hrs by western blot analysis. Type of data set: functional, cell-based.

Activity data for 13 compounds are collected here from ChEMBL document CHEMBL5046261, “Flavonostilbenes Isolated from the Stems of Rhamnoneuron balansae as Potential SIRT1 Activators” (J Nat Prod, 2022).

Activity calls are given as the source filed them. The rule behind the calls is not given here.

As to `O=c1c(O)c(-c2ccc(O)cc2)oc2cc3c(c(O)c12)[C@@H](c1cc(O)cc(O)c1)[C@H](c1ccc(O)cc1)O3`, in data set [1], the Activity entry is on record as “Non-Toxic”.
Take `O=C1c2c(O)cc3c(c2O[C@@H](c2ccc(O)cc2)[C@@H]1O)[C@H](c1cc(O)cc(O)c1)[C@@H](c1ccc(O)cc1)O3`: in data set [1], the Activity result was “Non-Toxic”.
Consider `O=c1c(O)c(-c2ccc(O)cc2)oc2cc(O)c(-c3cc(/C=C/c4cc(O)cc(O)c4)ccc3O)c(O)c12`, for which the outcome in data set [2] was Active. The Activity entry in [1] is listed as “Non-Toxic”.
Take `O=c1c(O)c(-c2ccc(O)cc2)oc2cc3c(c(O)c12)[C@@H](c1cc(O)cc(O)c1)[C@@H](c1ccc(O)cc1)O3`: the Activity result in [1] was “Non-Toxic”.
As to `O=C1c2c(O)cc(O)c(-c3cc(/C=C/c4cc(O)cc(O)c4)ccc3O)c2O[C@H](c2ccc(O)cc2)[C@H]1O`, the result in [3], in data set [2], in data set [4], in [6] and in data set [7] was Active. The Activity result in data set [5] was “Dose-Dependent Effect”; in data set [1], “Non-Toxic”; in data set [8] it was “Non-Toxic”.
Turning to `O=c1c(O)c(-c2ccc(O)c(O)c2)oc2cc3c(c(O)c12)[C@@H](c1cc(O)cc(O)c1)[C@H](c1ccc(O)cc1)O3`, the Activity entry in data set [1] was “Non-Toxic”.
For the compound `Oc1ccc(/C=C/c2cc(O)cc(O)c2)cc1`, the Activity result in data set [9] is “Dose-Dependent Effect”. Further, the result in data set [10] was Active.
For `O=c1c(O)c(-c2ccc(O)cc2)oc2c3c(cc(O)c12)O[C@@H](c1ccc(O)cc1)[C@H]3c1cc(O)cc(O)c1`, the Activity result in data set [1] is reported as “Non-Toxic”.
For `NC(=O)c1ncn([C@@H]2O[C@H](CO)[C@@H](O)[C@H]2O)c1N`, the outcome in data set [11] was Active.
As to `O=c1c(O)c(-c2cc(O)c(O)c(O)c2)oc2c3c(cc(O)c12)O[C@H](c1ccc(O)cc1)[C@H]3c1cc(O)cc(O)c1`, the Activity entry in data set [1] was “Non-Toxic”.
Turning to `O=C1c2c(cc(O)c(-c3cc(/C=C/c4cc(O)cc(O)c4)ccc3O)c2O)O[C@H](c2ccc(O)c(O)c2)[C@H]1O`, the outcome in [2] was Active. Besides, the Activity result in [1] was “Non-Toxic”.
In the same order, the values of `O=c1c(O)c(-c2ccc(O)c(O)c2)oc2c(-c3cc(/C=C/c4cc(O)cc(O)c4)ccc3O)c(O)cc(O)c12` are “Active” and “Non-Toxic”.
As to `O=c1c(O)c(-c2ccc(O)cc2)oc2c(-c3cc(/C=C/c4cc(O)cc(O)c4)ccc3O)c(O)cc(O)c12`, the result in data set [2] was Active. In [1], the Activity result was “Non-Toxic”.
